In ChEMBL document CHEMBL5357075, “Innovative Therapeutic Strategies in TYK2-Targeted Treatments: From Cancer to Autoimmune Disorders” (ACS Med Chem Lett, 2024):

How the values were obtained:
[1] = biological target: T1, Non-receptor tyrosine-protein kinase TYK2 (Homo sapiens, UniProt P29597); test: Inhibition of TYK2 in HEK-Blue IL-23 cells pretreated for 60 mins followed by IL-23 stimulation for 22 to 24 hrs by Quanti-Blue based SEAP assay; format: cell-based
[2] = biological target: T1, Non-receptor tyrosine-protein kinase TYK2; test: Inhibition of TYK2 in HEK-Blue alpha/beta cells pretreated for 60 mins followed by IFN-alpha stimulation for 16 to 18 hrs by Quanti-Blue based SEAP assay; format: cell-based

T1 sequence (P29597 whole entry): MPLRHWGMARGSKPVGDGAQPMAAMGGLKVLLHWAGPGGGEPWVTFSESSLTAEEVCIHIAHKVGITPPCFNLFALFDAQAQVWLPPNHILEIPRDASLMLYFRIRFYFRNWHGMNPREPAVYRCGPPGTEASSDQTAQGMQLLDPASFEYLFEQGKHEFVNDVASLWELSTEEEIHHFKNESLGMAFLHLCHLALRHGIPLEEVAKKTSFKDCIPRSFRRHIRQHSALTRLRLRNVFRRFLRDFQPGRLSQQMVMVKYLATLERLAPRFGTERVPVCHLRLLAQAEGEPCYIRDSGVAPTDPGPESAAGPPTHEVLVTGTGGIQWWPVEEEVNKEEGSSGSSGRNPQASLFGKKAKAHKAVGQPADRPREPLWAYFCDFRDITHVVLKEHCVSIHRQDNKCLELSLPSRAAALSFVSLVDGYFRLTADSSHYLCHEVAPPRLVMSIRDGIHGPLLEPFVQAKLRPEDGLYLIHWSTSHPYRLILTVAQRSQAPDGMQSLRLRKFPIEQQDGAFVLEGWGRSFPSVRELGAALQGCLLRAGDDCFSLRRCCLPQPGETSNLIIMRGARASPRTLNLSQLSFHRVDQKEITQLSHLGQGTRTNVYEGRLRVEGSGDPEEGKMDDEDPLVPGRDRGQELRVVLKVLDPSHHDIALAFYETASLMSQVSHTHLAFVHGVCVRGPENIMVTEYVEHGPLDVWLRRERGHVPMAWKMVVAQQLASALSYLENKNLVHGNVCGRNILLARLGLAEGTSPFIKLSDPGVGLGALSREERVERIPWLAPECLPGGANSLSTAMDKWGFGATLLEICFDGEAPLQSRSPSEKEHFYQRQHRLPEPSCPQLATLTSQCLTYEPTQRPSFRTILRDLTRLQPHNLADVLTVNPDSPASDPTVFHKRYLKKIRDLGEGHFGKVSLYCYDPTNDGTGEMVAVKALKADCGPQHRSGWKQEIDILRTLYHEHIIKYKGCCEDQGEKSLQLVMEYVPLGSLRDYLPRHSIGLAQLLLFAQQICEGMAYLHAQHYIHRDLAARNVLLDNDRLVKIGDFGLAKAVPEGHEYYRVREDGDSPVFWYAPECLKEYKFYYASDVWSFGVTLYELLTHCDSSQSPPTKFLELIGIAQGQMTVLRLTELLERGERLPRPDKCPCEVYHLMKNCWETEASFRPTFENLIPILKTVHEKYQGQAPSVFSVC

IC50 [1] | IC50 [2] | SMILES
< 0.03 µM | 0.03 µM | [2H]C([2H])([2H])CC(=O)c1cnc(NC(=O)C2CC2)cc1Nc1cccc2c1N(C)Cc1nc(C)nn1-2
< 0.03 µM | < 0.03 µM | [2H]C([2H])([2H])CC(=O)c1cnc(NC(=O)C2CC2)cc1Nc1cccc2c1N(C)[C@@H](C)c1nn(C)nc1-2
< 0.03 µM | 0.03 µM | [2H]C([2H])([2H])CC(=O)c1cnc(NC(=O)C2CC2)cc1Nc1nccc2c1N(C)Cc1nn(CC)nc1-2
